Several values for one entry are separate records, joined by “and”; a condition that tells them apart may be missing. Identical values can stand only once. Like-named read-outs stand apart in the source and are kept apart here.
Key:
[1] = tested on: AGS cells; experiment: Cell viability, crystal violet staining; conditions: for Cell Viability without NAC: AGS cells, Fig. S6A; for IC50: read-out: IC50 concentration (± SD) at 48 h, 48 h
Experimental: (§1) Cell viability was assessed using a crystal violet-based staining method. […] The cells (2 × 10^5) were seeded in 24-multiwell dishes in 0.5 mL of complete medium and incubated overnight. […] After 48 h, cells were fixed with 1% glutaraldehyde (20–30 min), washed with distilled water, and stained with 0.1% crystal violet. […] IC50 were calculated by using GraphPad Prism (version 8.0). Nonlinear regression was used to fit the data to the log (inhibitor) versus response (variable slope).

[2] = tested on: MKN45 cells; experiment: Cell viability, crystal violet staining; conditions: for Cell Viability without NAC: MKN45 cells, Fig. S6A; for IC50: read-out: IC50 concentration (± SD) at 48 h, 48 h
Experimental: as §1

[3] = tested on: PANC1 cells; experiment: Cell viability, crystal violet staining; conditions: for Cell Viability without NAC: PANC1 cells, Fig. S6A; for IC50: read-out: IC50 concentration (± SD) at 48 h, 48 h
Experimental: as §1

[4] = tested on: AGS cells; experiment: Flow cytometry mitochondrial mass and membrane potential (MitoTracker Green / CMXRos); assay type: cell-based, human; conditions: fold change vs C, replicates
Experimental: (§2) We used flow cytometry to study the mitochondrial mass, mitochondrial membrane potential (ΔΨm) and cellular senescence of untreated and treated cells. Cells (5 × 10^4) were seeded in 24-multiwell dishes and cultured overnight. […] Cells were tripsinized, stained with Mitoprobes and resuspended in Flow buffer [1X PBS; 3% Fetal Bovine Serum (v/v); 3 mM EDTA (v/v)] before analysis with a 4-laser Attune NxT Acoustic Cytometer (Thermo Fisher Scientific). For Mitoprobe assays, […] DAPI (Sigma) was used to exclude dead cells. Data were analyzed with FlowJo 9.3 software (Tree Star Inc., Ashland, OR). For mitochondrial mass and ΔΨm measurement, Mitotracker Green (MTGreen, M7514, Invitrogen) and Mitotracker Red CMXRos (CMXROS, M7512, Invitrogen) were used, respectively. Probes were incubated with cells for 30 min at 37 °C at a concentration of 100 nM (MTGreen) and 20 nM (CMXROS), and fluorescence was detected using the filters (Ex488nm/Em530/30) BL1 and (Ex561nm/Em585/16) YL1, respectively. To determine mitochondria functionality, the ratio between ΔΨm (MitoTracker Red CMXRos) versus Mit. Mass (MitoTracker Green) was calculated. The gating strategy used in all the Flow Cytometry experiments is reflected in Fig.S10.

[5] = tested on: MKN45 cells; experiment: as above; assay type: cell-based, human
Experimental: as §2

[6] = tested on: PANC1 cells; experiment: as above; assay type: cell-based, human
Experimental: as §2

[7] = tested on: AGS cells; experiment: RT-qPCR gene expression (CDKN1A, IL6, MMP1, MAP2K3, SOD1, SOD2, CAT, MKI67, TNFRSF10D); assay type: cell-based, human
Experimental: (§3) Total cellular RNA was extracted using Tri-Reagent (Life Technologies), following the manufacturer’s instructions. One μg of total RNA was primed with random primers and cDNA synthesized with an M-MLV reverse transcriptase following the manufacturer’s instructions (Promega). Target genes were amplified using a SYBR Green polymerase chain reaction assay, working with the specific primer sets listed in Table 4.
(§4) Thermal cycling of the qPCR reaction was initiated with a denaturation step at 95 °C for 10 min. The process consisted of 40 cycles (denaturation at 95 °C for 15 sec, annealing at 60 °C for 30 sec, and elongation at 75 °C for 30 sec). PCR amplifications were carried out in a StepOne Real‐time PCR System (Applied Biosystems, 4376357). Relative mRNA levels were calculated by the delta-Ct method (2-ΔΔCt), where each 1-Ct difference equals a two-fold change in transcript abundance, using GAPDH as an endogenous gene reference. ΔΔCT represents the difference between the mean ΔCT value of the cells tested and the mean ΔCT value of the calibrator, both calculated for the same PCR run.

[8] = tested on: MKN45 cells; experiment: as above; assay type: cell-based, human
Experimental: as §3, §4

[9] = tested on: PANC1 cells; experiment: as above; assay type: cell-based, human
Experimental: as §3, §4

[10] = tested on: AGS cells; experiment: Ratio GSH/GSSG, colorimetric kit; assay type: cell-based, human
In short: (§5)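 AGS and PANC1 cells were exposed to compounds for 3 and 24 h, with H2O2 as positive control. GSSG was measured separately after 2-vinylpyridine treatment to give the GSH/GSSG ratio.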

[11] = tested on: PANC1 cells; experiment: Ratio GSH/GSSG, colorimetric kit; assay type: cell-based, human
In short: as §5

[12] = MKN45, fold change vs C, replicates
[13] = PANC1, fold change vs C, replicates
[14] = MKN45, Fig. 3C, replicate values
[15] = PANC1, Fig. 3C, replicate values

Q: For `CC(C)[NH][Pt@SP3]([I])([I])[NH]C(C)C` [I5, trans-[PtI2(isopropylamine)2]], which IC25 concentration ([1]; AGS) is on record?
A: 15 µM

Q: And the “Cell Viability without NAC” value ([1]; dose 10 µM)?
A: 104.459

Q: And the “Cell Viability without NAC” value ([1]; dose 50 µM)?
A: 35.6312

Q: And the “Cell Viability without NAC” value ([1]; dose 75 µM)?
A: 33.3189

Q: And the IC50 ([1]; AGS, NAC (+) 0.5 mM)?
A: > 100 µM

Q: And the IC50 ([1]; AGS, NAC (-))?
A: 40 µM and 38.2 µM

Q: What about the “Cell Viability without NAC” value ([2]; dose 10 µM) of the same compound?
A: 97.9702 and 91.0232 and 100.944

Q: What about the “Cell Viability without NAC” value ([2]; dose 25 µM) of the same compound?
A: 85.8879 and 70.3076 and 69.3928

Q: What about the “Cell Viability without NAC” value ([2]; dose 50 µM) of the same compound?
A: 44.0762 and 29.818 and 39.7772

Q: And the “Cell Viability without NAC” value ([2]; dose 75 µM)?
A: 32.4358 and 27.3279 and 29.4931

Q: What about the IC50 ([2]; MKN45, NAC (+) 0.5 mM) of the same compound?
A: > 100 µM

Q: What about the IC50 ([2]; MKN45, NAC (-)) of the same compound?
A: 30 µM and 28.7 µM

Q: What about the “Cell Viability without NAC” value ([3]; dose 10 µM) of the same compound?
A: 85.9915 and 83.1095 and 92.9481

Q: What about the “Cell Viability without NAC” value ([3]; dose 25 µM) of the same compound?
A: 34.4587 and 38.5831 and 38.2547

Q: What about the “Cell Viability without NAC” value ([3]; dose 50 µM) of the same compound?
A: 18.5972 and 30.025 and 31.7453

Q: What about the “Cell Viability without NAC” value ([3]; dose 75 µM) of the same compound?
A: 17.1129 and 21.5975 and 27.2406

Q: What about the IC50 ([3]; PANC1, NAC (+) 0.5 mM) of the same compound?
A: > 100 µM

Q: And the IC50 ([3]; PANC1, NAC (-))?
A: 18 µM and 20 µM and 18.2 µM

Q: What about the “Fold change %CMXROS, ΔΨm” value [4] of the same compound?
A: 0.96 and 0.93 and 0.85

Q: And the “Fold change %MTGreen, MM” value [4]?
A: 1.08 and 1.04 and 1.0618

Q: What about the “Fold change ΔΨm/MM” value ([5]; MKN45, IC50 doses 24 h, CMX-ROS/MitoGreen ratio vs untreated 1.0) of the same compound?
A: 0.47 and 0.42 and 0.46

Q: And the “Fold change %CMXROS, ΔΨm” value [5, 12]?
A: 0.4 and 0.35 and 0.72

Q: What about the “Fold change %MTGreen, MM” value [5, 12] of the same compound?
A: 0.86 and 0.82 and 1.11

Q: And the “Fold change ΔΨm/MM” value ([6]; PANC1, IC50 doses 24 h, CMX-ROS/MitoGreen ratio vs untreated 1.0)?
A: 0.46 and 0.55 and 0.5

Q: And the “Fold change %CMXROS, ΔΨm” value [6, 13]?
A: 1.17 and 1.2 and 1.05

Q: What about the “Fold change %MTGreen, MM” value [6, 13] of the same compound?
A: 2.17 and 2.54 and 2.28

Q: What about the “CDKN1A, Fold change vs GAPDH” value ([7]; Fig. 3C, replicate values) of the same compound?
A: 3.618 fold change and 2.316 fold change and 5.653 fold change

Q: And the “IL-6, Fold change vs GAPDH” value ([7]; Fig. 3C, replicate values)?
A: 2.065 fold change and 3.223 fold change and 3.287 fold change

Q: And the “MMP-1, Fold change vs GAPDH” value ([7]; Fig. 3C, replicate values)?
A: 226.834 fold change and 185.054 fold change and 278.046 fold change

Q: And the “Fold change MAP2K3 vs GAPDH” value ([7]; Fig. 4B, replicate values)?
A: 4.889 fold change and 4.056 fold change and 5.8931 fold change

Q: And the “MKI67 Fold change vs GAPDH” value ([7]; Fig. S4C)?
A: 0.1267 fold change and 0.1149 fold change and 0.1396 fold change

Q: And the “TNFRSF10D Fold change vs GAPDH” value ([7]; Fig. S4C)?
A: 23.1799 fold change and 20.8545 fold change and 25.7647 fold change

Q: And the “CAT (Fold change vs GAPDH)” value ([7]; mRNA vs Control = 1)?
A: 0.8688 Fold change and 0.7906 Fold change and 0.9547 Fold change

Q: And the “SOD1 (Fold change vs GAPDH)” value ([7]; mRNA vs Control = 1)?
A: 1.921 Fold change and 1.645 Fold change and 2.244 Fold change

Q: And the “SOD2 (Fold change vs GAPDH)” value ([7]; mRNA vs Control = 1)?
A: 1.44 Fold change and 1.254 Fold change and 1.654 Fold change

Q: And the “MKI67 Fold change vs GAPDH” value ([8]; MKN45, Fig. S4C)?
A: 0.1536 fold change and 0.123 fold change and 0.1918 fold change

Q: What about the “TNFRSF10D Fold change vs GAPDH” value ([8]; MKN45, Fig. S4C) of the same compound?
A: 1.273 fold change and 0.9869 fold change and 1.641 fold change

Q: And the “CAT (Fold change vs GAPDH)” value ([8]; MKN45, mRNA vs Control = 1)?
A: 0.5641 Fold change and 0.4321 Fold change and 0.7364 Fold change

Q: And the “SOD1 (Fold change vs GAPDH)” value ([8]; MKN45, mRNA vs Control = 1)?
A: 2.6 Fold change and 2.293 Fold change and 2.9486 Fold change

Q: And the “SOD2 (Fold change vs GAPDH)” value ([8]; MKN45, mRNA vs Control = 1)?
A: 1.053 Fold change and 0.9005 Fold change and 1.465 Fold change

Q: And the “CDKN1A, Fold change vs GAPDH” value [8, 14]?
A: 3.253 fold change and 2.596 fold change and 4.076 fold change

Q: What about the “IL-6, Fold change vs GAPDH” value [8, 14] of the same compound?
A: 0.4948 fold change and 2.435 fold change and 1.266 fold change

Q: And the “MMP-1, Fold change vs GAPDH” value [8, 14]?
A: 7.796 fold change and 5.223 fold change and 11.6341 fold change

Q: And the “Fold change MAP2K3 vs GAPDH” value ([8]; MKN45, Fig. 4B, replicate values)?
A: 1.986 fold change and 1.696 fold change and 2.324 fold change

Q: What about the “MKI67 Fold change vs GAPDH” value ([9]; PANC1, Fig. S4C) of the same compound?
A: 1.955 fold change and 1.4208 fold change and 2.69 fold change

Q: And the “TNFRSF10D Fold change vs GAPDH” value ([9]; PANC1, Fig. S4C)?
A: 5.496 fold change and 3.924 fold change and 7.699 fold change

Q: What about the “CAT (Fold change vs GAPDH)” value ([9]; PANC1, mRNA vs Control = 1) of the same compound?
A: 1.529 Fold change and 1.325 Fold change and 1.766 Fold change

Q: What about the “SOD1 (Fold change vs GAPDH)” value ([9]; PANC1, mRNA vs Control = 1) of the same compound?
A: 1.806 Fold change and 1.686 Fold change and 1.679 Fold change

Q: And the “SOD2 (Fold change vs GAPDH)” value ([9]; PANC1, mRNA vs Control = 1)?
A: 0.6164 Fold change and 0.5428 Fold change and 0.7 Fold change

Q: What about the “CDKN1A, Fold change vs GAPDH” value [9, 15] of the same compound?
A: 4.551 fold change and 3.906 fold change and 5.303 fold change

Q: And the “IL-6, Fold change vs GAPDH” value [9, 15]?
A: 7.572 fold change and 6.429 fold change and 8.917 fold change

Q: And the “MMP-1, Fold change vs GAPDH” value [9, 15]?
A: 12.6345 fold change and 9.391 fold change and 8.708 fold change

Q: And the “Fold change MAP2K3 vs GAPDH” value ([9]; PANC1, Fig. 4B, replicate values)?
A: 3.332 fold change and 2.993 fold change and 3.71 fold change

Q: What about the GSH/GSSG ([10]; AGS, 3, relative to Control = 1) of the same compound?
A: 0.9172 and 0.9228 and 0.9268

Q: And the GSH/GSSG ([10]; AGS, 24, relative to Control = 1)?
A: 0.5757 and 0.62 and 0.7864

Q: And the GSH/GSSG ([11]; PANC1, 3, relative to Control = 1)?
A: 0.746 and 0.7881 and 0.8512

Q: And the GSH/GSSG ([11]; PANC1, 24, relative to Control = 1)?
A: 0.8241 and 0.8337 and 0.9592
